Test: Single dose tissue distribution study (QWBA, LSC of blood and plasma)
Format: in vivo, Sprague-Dawley rats
Description: Six male rats were administered a single oral dose of [^14C]PPI-1011 at 100 mg/kg (200 μCi/kg) and one rat was sacrificed at each of the following time points after the administration of the dose: 8, 12, 18, 24, 48, or 168 h. Terminal blood was collected by cardiac puncture directly into tubes with K2EDTA, an aliquot was stored at 4°C until LSC was performed for radioactivity, while the remaining blood was processed to plasma and stored at −20°C until LSC. Following blood collection, the carcasses were frozen in a cold bath with hexanes and dry ice for at least 8 min and then dried and stored at −70°C for at least 5 h. The carcasses were transferred to a −20°C freezer for at least 12 h before embedding.
QWBA was used to determine radioactivity concentrations in the caecum (contents and mucosa), large intestine (contents and mucosa), small intestine (contents and mucosa), stomach (contents and mucosa), brain, choroid plexus, spinal cord, bone, skin, adrenal gland, pineal body, pituitary gland, thyroid gland, liver, kidney (cortex, medulla and whole kidney), urinary bladder (contents and wall), brown fat, white fat, eye (lens, uveal tract and whole eye), epididymis, prostate gland, testis, ovary, uterus, lung, exorbital lachrymal gland, Harderian gland, pancreas, salivary gland, skeletal muscle, myocardium, cardiac blood, bone marrow, lymph node, spleen, and thymus. As well, LSC was used to determine the total radioactivity in the whole blood and plasma.
The whole-body cryosectioning technique described by ([Ullberg, 1977]) was the basis for embedding and cryosectioning the rats assigned to this study. Each frozen carcass was shaved, and then the limbs and tail were removed prior to embedding. Chilled (4°C) 3% CMC (low viscosity) was utilized to provide a firm support of reinforced ice around each rat and for a secure attachment to the microtome stage. Upon thorough freezing of the embedding medium surrounding each rat, the frozen CMC block was removed from the freezing bath and four 3/8 inch holes were drilled into the block. One cryosection quality control standard (CQCS) was prepared with a known amount of radioactivity and at least 1 ml aliquots were added to each of the four drilled holes. CQCS data were utilized to evaluate the overall performance of the QWBA assay.
Each frozen rat was sagittally trimmed (50–100 μm) at −20°C until exposure of a few target tissues employing a Leica Cryomacrocut heavy-duty microtome (Leica Microsystems Inc.,). Disposable stainless steel Feather type H45L knives (Feather Safety Razor Co., Ltd.) were utilized for trimming and sectioning each frozen rat. Several thinner sections (50 μm) were discarded prior to obtaining multiple 50 μm sections at various cryosectioning levels for QWBA analysis. Upon the collection of at least 60 target tissues in multiple cryosectioning levels, the cryosections were kept in the Cryomacrocut cryochamber for a minimum of 18 h for dehydration depending upon the number of cryosections within the cryochamber. After dehydration was complete, the cryosections were transferred to ambient temperature for processing. Mounted whole-body cryosections and a set of 15 standards were sandwiched between a standard phosphor screen and an exposure cassette. All cryosections were exposed to the phosphor screen for 4-days in a cabinet protected with lead prior to scanning using a Typhoon PhosphorImager (Cytiva). MCID™ Analysis software (InterFocus Ltd.) was utilized to generate a calibration curve of the STD nominal concentrations (nCi/g) versus PhosphorImager response (counts/μm^2 minus background) by weighted (1/x) linear regression analysis ([Potchoiba et al., 1995]; [Potchoiba et al., 1998]). The linear regression curve was then utilized to determine the concentration (nCi/g) of total radioactivity in whole-body tissues and blood. Radioactivity concentrations were expressed as μg Eq/g based on the specific activity of the compound in the final dose formulations. […]

[1] = 12 h post single oral 100 mg/kg
[2] = 18 h post single oral 100 mg/kg
[3] = 24 h post single oral 100 mg/kg

CC/C=C\C/C=C\C/C=C\C/C=C\C/C=C\C/C=C\CCC(=O)O[C@H](CO[14CH2]CCCCCCCCCCCCCCC)COC(=O)CCCCC1CCSS1 (stereo partly shown) [[^14C]PPI-1011]
Radioactivity concentration, Olfactory Bulb [1]: 2.01 μg equivalents/g | Radioactivity concentration, Pancreas [1]: 52.7 μg equivalents/g | Radioactivity concentration, Parotid Gland [1]: 30.4 μg equivalents/g | Radioactivity concentration, Pineal Gland [1]: 12.1 μg equivalents/g | Radioactivity concentration, Pituitary Gland [1]: 21.2 μg equivalents/g | Radioactivity concentration, Preputial Gland [1]: 214 μg equivalents/g | Radioactivity concentration, Prostate [1]: 11.8 μg equivalents/g | Radioactivity concentration, Renal Cortex [1]: 46.6 μg equivalents/g | Radioactivity concentration, Renal Medulla [1]: 53.2 μg equivalents/g | Radioactivity concentration, Salivary Gland [1]: 31.4 μg equivalents/g | Radioactivity concentration, Seminal Vesicles [1]: 2.99 μg equivalents/g | Radioactivity concentration, Skin - Non-Pigmented [1]: 18.0 μg equivalents/g | Radioactivity concentration, Small Intestines [1]: 347 μg equivalents/g | Radioactivity concentration, Spinal Cord [1]: 2.76 μg equivalents/g | Radioactivity concentration, Spleen [1]: 111 μg equivalents/g | Radioactivity concentration, Stomach [1]: 22.9 μg equivalents/g | Radioactivity concentration, Testis [1]: 4.12 μg equivalents/g | Radioactivity concentration, Thalamus [1]: 2.31 μg equivalents/g | Radioactivity concentration, Thymus [1]: 12.2 μg equivalents/g | Radioactivity concentration, Thyroid [1]: 43.1 μg equivalents/g | Radioactivity concentration, Whole Brain [1]: 2.48 μg equivalents/g | Radioactivity concentration, Adipose - Brown [2]: 66.0 μg equivalents/g | Radioactivity concentration, Adipose - Brown (Vessel Wall) [2]: 94.2 μg equivalents/g | Radioactivity concentration, Adipose - Subcutaneous [2]: 73.9 μg equivalents/g | Radioactivity concentration, Adipose - Visceral [2]: 75.6 μg equivalents/g | Radioactivity concentration, Adrenal Gland [2]: 185 μg equivalents/g | Radioactivity concentration, Bladder Wall [2]: 14.5 μg equivalents/g | Radioactivity concentration, Blood - QWBA [2]: 9.62 μg equivalents/g | Radioactivity concentration, Bone Marrow [2]: 22.3 μg equivalents/g | Radioactivity concentration, Bone Surface [2]: 1.25 μg equivalents/g | Radioactivity concentration, Cecum [2]: 177 μg equivalents/g | Radioactivity concentration, Cerebellum [2]: 3.03 μg equivalents/g | Radioactivity concentration, Cerebrum [2]: 2.49 μg equivalents/g | Radioactivity concentration, Choroid Plexus [2]: 12.8 μg equivalents/g | Radioactivity concentration, Colliculus [2]: 2.94 μg equivalents/g | Radioactivity concentration, Diaphragm [2]: 40.4 μg equivalents/g | Radioactivity concentration, Epididymis [2]: 67.7 μg equivalents/g | Radioactivity concentration, Esophagus [2]: 15.0 μg equivalents/g | Radioactivity concentration, Exorbital Lacrimal Gland [2]: 8.74 μg equivalents/g | Radioactivity concentration, Gastric Mucosa [2]: 70.1 μg equivalents/g | Radioactivity concentration, Harderian Gland [2]: 14.7 μg equivalents/g | Radioactivity concentration, Intra-Orbital Lacrimal Gland [2]: 8.91 μg equivalents/g | Radioactivity concentration, Kidney [2]: 36.1 μg equivalents/g | Radioactivity concentration, Large Intestines [2]: 154 μg equivalents/g | Radioactivity concentration, Liver [2]: 121 μg equivalents/g | Radioactivity concentration, Lung [2]: 45.4 μg equivalents/g | Radioactivity concentration, Lymph Node [2]: 22.5 μg equivalents/g | Radioactivity concentration, Medulla Oblongata [2]: 2.23 μg equivalents/g | Radioactivity concentration, Muscle [2]: 9.63 μg equivalents/g | Radioactivity concentration, Myocardium [2]: 42.4 μg equivalents/g | Radioactivity concentration, Nasal Turbinates [2]: 6.43 μg equivalents/g | Radioactivity concentration, Ocular - Uveal Tract [2]: 5.32 μg equivalents/g | Radioactivity concentration, Ocular - Whole Eye [2]: 1.65 μg equivalents/g | Radioactivity concentration, Olfactory Bulb [2]: 1.75 μg equivalents/g | Radioactivity concentration, Pancreas [2]: 39.8 μg equivalents/g | Radioactivity concentration, Parotid Gland [2]: 35.2 μg equivalents/g | Radioactivity concentration, Pineal Gland [2]: 16.2 μg equivalents/g | Radioactivity concentration, Pituitary Gland [2]: 22.0 μg equivalents/g | Radioactivity concentration, Preputial Gland [2]: 78.0 μg equivalents/g | Radioactivity concentration, Prostate [2]: 28.0 μg equivalents/g | Radioactivity concentration, Renal Cortex [2]: 38.1 μg equivalents/g | Radioactivity concentration, Renal Medulla [2]: 23.0 μg equivalents/g | Radioactivity concentration, Salivary Gland [2]: 28.8 μg equivalents/g | Radioactivity concentration, Skin - Non-Pigmented [2]: 12.0 μg equivalents/g | Radioactivity concentration, Small Intestines [2]: 239 μg equivalents/g | Radioactivity concentration, Spinal Cord [2]: 3.20 μg equivalents/g | Radioactivity concentration, Spleen [2]: 71.3 μg equivalents/g | Radioactivity concentration, Stomach [2]: 21.6 μg equivalents/g | Radioactivity concentration, Testis [2]: 5.09 μg equivalents/g | Radioactivity concentration, Thalamus [2]: 2.20 μg equivalents/g | Radioactivity concentration, Thymus [2]: 11.8 μg equivalents/g | Radioactivity concentration, Thyroid [2]: 38.5 μg equivalents/g | Radioactivity concentration, Whole Brain [2]: 2.70 μg equivalents/g | Radioactivity concentration, Adipose - Brown [3]: 133 μg equivalents/g | Radioactivity concentration, Adipose - Brown (Vessel Wall) [3]: 110 μg equivalents/g | Radioactivity concentration, Adipose - Subcutaneous [3]: 70.1 μg equivalents/g | Radioactivity concentration, Adipose - Visceral [3]: 71.6 μg equivalents/g | Radioactivity concentration, Adrenal Gland [3]: 155 μg equivalents/g | Radioactivity concentration, Bladder Wall [3]: 7.69 μg equivalents/g | Radioactivity concentration, Blood - QWBA [3]: 5.62 μg equivalents/g | Radioactivity concentration, Bone Marrow [3]: 18.3 μg equivalents/g | Radioactivity concentration, Bone Surface [3]: 0.513 μg equivalents/g | Radioactivity concentration, Cecum [3]: 231 μg equivalents/g | Radioactivity concentration, Cerebellum [3]: 2.08 μg equivalents/g | Radioactivity concentration, Cerebrum [3]: 1.61 μg equivalents/g
